Test results published in patent US20240226225A1 (Protagonist Therapeutics, Inc., priority 2021, published 2024).
Starred links: 1 amine or outer side, 2 acyl side, 3 side chain; linkers in the order of their positions; H or OH if unused. Positions of bridges follow the written chain, without caps; N, C: chain ends. Non-standard residues stand in square brackets, D forms with d. Residues, ends and D or L forms follow the SMILES beside them. Groups on a side chain read outwards from the residue. *: point of attachment. Ala(1H-tetrazol-5-yl) = N[C@@H](Cc1nnn[nH]1)C(=O)O; Phe(3,4-Cl2) = N[C@@H](Cc1ccc(Cl)c(Cl)c1)C(=O)O; Phe(2,4-Cl2) = N[C@@H](Cc1ccc(Cl)cc1Cl)C(=O)O; Phe(3,5-F2) = N[C@@H](Cc1cc(F)cc(F)c1)C(=O)O; C18 diacid = O=C(O)CCCCCCCCCCCCCCCCC(=O)*; Dip = N[C@H](C(=O)O)C(c1ccccc1)c1ccccc1; γGlu = O=C(O)[C@H](CCC(=O)[*:2])N[*:1]; β3hF = N[C@H](CC(=O)O)Cc1ccccc1; Isovaleryl = CC(C)CC(=O)*; AEEA = NCCOCCOCC(=O)O

Target: T1, ferroportin (Homo sapiens, UniProt Q9NP59)
T1 sequence (Q9NP59 1-571): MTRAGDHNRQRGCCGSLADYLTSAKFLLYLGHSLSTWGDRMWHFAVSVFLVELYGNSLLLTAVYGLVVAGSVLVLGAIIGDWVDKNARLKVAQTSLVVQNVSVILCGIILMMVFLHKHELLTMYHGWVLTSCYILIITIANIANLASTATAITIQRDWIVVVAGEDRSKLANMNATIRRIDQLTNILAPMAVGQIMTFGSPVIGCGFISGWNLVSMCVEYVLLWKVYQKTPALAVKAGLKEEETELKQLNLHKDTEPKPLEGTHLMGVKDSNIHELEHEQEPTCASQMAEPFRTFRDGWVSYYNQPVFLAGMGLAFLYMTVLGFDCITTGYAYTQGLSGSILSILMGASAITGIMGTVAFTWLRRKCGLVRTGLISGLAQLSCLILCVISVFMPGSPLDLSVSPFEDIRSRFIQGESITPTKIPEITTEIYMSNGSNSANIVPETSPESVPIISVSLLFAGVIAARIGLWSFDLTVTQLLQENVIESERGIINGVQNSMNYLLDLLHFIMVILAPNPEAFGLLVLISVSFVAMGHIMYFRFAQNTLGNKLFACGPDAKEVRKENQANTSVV
Test: FPN activity assay: internalization/degradation of ferroportin-GFP in stably transfected HEK293 cells, decrease in GFP fluorescence
Type: cell-based
Design: expressed in transfected cells
Conditions: HEK293 cells stably expressing ferroportin-GFP, at least 18 hours incubation; read-out: FPN EC50

Row | SMILES | DC50 [nM]
1 | CC[C@H](C)[C@@H]1NC(=O)[C@@H](NC(=O)[C@@H]2CCCN2C(=O)[C@H](Cc2ccccc2)NC(=O)[C@H](Cc2c[nH]cn2)NC(=O)[C@@H](NC(=O)[C@H](Cc2nn[nH]n2)NC(=O)CC(C)C)[C@@H](C)O)CSSC[C@@H](C(=O)N[C@@H](CCCCN)C(N)=O)NC(=O)CNC(=O)[C@H](CCCCN)NC(=O)[C@H](CO)NC(=O)[C@H](CCCNC(=N)N)NC(=O)[C@@H]2CCCN2C(=O)[C@H](CCC(=O)O)NC(=O)[C@H](Cc2ccccc2)NC(=O)[C@H](CCCCNC(=O)COCCOCCNC(=O)COCCOCCNC(=O)CC[C@H](NC(=O)CCCCCCCCCCCCCCCCC(=O)O)C(=O)O)NC1=O [Compd 3, Isovaleric Acid-[Tet1]-T-H-F-P-[Cys]-I-[Lys(1PEG2_1PEG2_IsoGlu_C18_Diacid)]-F-E-P-R-S-K-G-[Cys]-K-NH2] (Isovaleryl-[Ala(1H-tetrazol-5-yl)]THFPCIK([AEEA-AEEA-γGlu-C18 diacid])FEPRSKGCK-NH2; disulfide 6-16) | 10 to 100
2 | CC[C@H](C)[C@@H]1NC(=O)[C@@H](NC(=O)[C@@H]2CCCN2C(=O)[C@H](Cc2cc(F)cc(F)c2)NC(=O)[C@H](Cc2c[nH]cn2)NC(=O)[C@@H](NC(=O)[C@H](Cc2nn[nH]n2)NC(=O)CC(C)C)[C@@H](C)O)CSSC[C@@H](C(N)=O)NC(=O)[C@@H](CCCCN)NC(=O)C[C@H](Cc2ccccc2)NC(=O)[C@H](CCCCNC(=O)COCCOCCNC(=O)COCCOCCNC(=O)CC[C@H](NC(=O)CCCCCCCCCCCCCCCCC(=O)O)C(=O)O)NC1=O [Compd 19, Isovaleric Acid-[Tet1]-T-H-[Phe_35diF]-P-[Cys]-I-[Lys(1PEG2_1PEG2_IsoGlu_C18_Diacid)]-[bhPhe]-[(D)Lys]-[Cys]-NH2] (Isovaleryl-[Ala(1H-tetrazol-5-yl)]TH[Phe(3,5-F2)]PCIK([AEEA-AEEA-γGlu-C18 diacid])[β3hF][dK]C-NH2; disulfide 6-11) | 100 to 500
3 | CC[C@H](C)[C@@H]1NC(=O)[C@@H](NC(=O)[C@@H]2CCCN2C(=O)[C@H](Cc2ccc(Cl)c(Cl)c2)NC(=O)[C@H](Cc2c[nH]cn2)NC(=O)[C@@H](NC(=O)[C@H](Cc2nn[nH]n2)NC(=O)CC(C)C)[C@@H](C)O)CSSC[C@@H](C(N)=O)NC(=O)[C@@H](CCCCN)NC(=O)C[C@H](Cc2ccccc2)NC(=O)[C@H](CCCCNC(=O)COCCOCCNC(=O)COCCOCCNC(=O)CC[C@H](NC(=O)CCCCCCCCCCCCCCCCC(=O)O)C(=O)O)NC1=O [Compd 25, Isovaleric Acid-[Tet1]-T-H-[Phe_34diCl]-P-[Cys]-I-[Lys(1PEG2_1PEG2_IsoGlu_C18_Diacid)]-[bhPhe]-[(D)Lys]-[Cys]-NH2] (Isovaleryl-[Ala(1H-tetrazol-5-yl)]TH[Phe(3,4-Cl2)]PCIK([AEEA-AEEA-γGlu-C18 diacid])[β3hF][dK]C-NH2; disulfide 6-11) | 100 to 500
4 | CC[C@H](C)[C@@H]1NC(=O)[C@@H](NC(=O)[C@@H]2CCCN2C(=O)[C@H](Cc2ccc(Cl)cc2Cl)NC(=O)[C@H](Cc2c[nH]cn2)NC(=O)[C@@H](NC(=O)[C@H](Cc2nn[nH]n2)NC(=O)CC(C)C)[C@@H](C)O)CSSC[C@@H](C(N)=O)NC(=O)[C@@H](CCCCN)NC(=O)C[C@H](Cc2ccccc2)NC(=O)[C@H](CCCCNC(=O)COCCOCCNC(=O)COCCOCCNC(=O)CC[C@H](NC(=O)CCCCCCCCCCCCCCCCC(=O)O)C(=O)O)NC1=O [Compd 26, Isovaleric Acid-[Tet1]-T-H-[Phe_24diCl]-P-[Cys]-I-[Lys(1PEG2_1PEG2_IsoGlu_C18_Diacid)]-[bhPhe]-[(D)Lys]-[Cys]-NH2] (Isovaleryl-[Ala(1H-tetrazol-5-yl)]TH[Phe(2,4-Cl2)]PCIK([AEEA-AEEA-γGlu-C18 diacid])[β3hF][dK]C-NH2; disulfide 6-11) | 100 to 500
5 | CC[C@H](C)[C@@H]1NC(=O)[C@@H](NC(=O)[C@@H]2CCCN2C(=O)[C@@H](NC(=O)[C@H](Cc2c[nH]cn2)NC(=O)[C@@H](NC(=O)[C@H](Cc2nn[nH]n2)NC(=O)CC(C)C)[C@@H](C)O)C(c2ccccc2)c2ccccc2)CSSC[C@@H](C(=O)O)NC(=O)C[C@H](Cc2ccccc2)NC(=O)[C@H](CCCCNC(=O)COCCOCCNC(=O)COCCOCCNC(=O)CC[C@H](NC(=O)CCCCCCCCCCCCCCCCC(=O)O)C(=O)O)NC1=O [Compd 37, Isovaleric Acid-[Tet1]-T-H-[Dpa]-P-[Cys]-I-[Lys(1PEG2_1PEG2_IsoGlu_C18_Diacid)]-[bhPhe]-[Cys]] (Isovaleryl-[Ala(1H-tetrazol-5-yl)]TH[Dip]PCIK([AEEA-AEEA-γGlu-C18 diacid])[β3hF]C-OH; disulfide 6-10; C-terminus assumed) | > 500
6 | CC[C@H](C)[C@@H]1NC(=O)[C@@H](NC(=O)[C@@H]2CCCN2C(=O)[C@@H](NC(=O)[C@H](Cc2c[nH]cn2)NC(=O)[C@@H](NC(=O)[C@H](Cc2nn[nH]n2)NC(=O)CCCN)[C@@H](C)O)C(c2ccccc2)c2ccccc2)CSSC[C@@H](C(N)=O)NC(=O)[C@@H](CCCCN)NC(=O)C[C@H](Cc2ccccc2)NC(=O)[C@H](CCCCNC(=O)COCCOCCNC(=O)COCCOCCNC(=O)CC[C@H](NC(=O)CCCCCCCCCCCCCCCCC(=O)O)C(=O)O)NC1=O [Compd 38, Gaba-[Tet1]-T-H-[Dpa]-P-[Cys]-I-[Lys(1PEG2_1PEG2_IsoGlu_C18_Diacid)]-[bhPhe]-[(D)Lys]-[Cys]-NH2] | > 500
7 | CC[C@H](C)[C@@H]1NC(=O)[C@@H](NC(=O)[C@@H]2CCCN2C(=O)[C@@H](NC(=O)[C@H](Cc2c[nH]cn2)NC(=O)[C@@H](NC(=O)[C@H](Cc2nn[nH]n2)NC(=O)CCCCN)[C@@H](C)O)C(c2ccccc2)c2ccccc2)CSSC[C@@H](C(N)=O)NC(=O)[C@@H](CCCCN)NC(=O)C[C@H](Cc2ccccc2)NC(=O)[C@H](CCCCNC(=O)COCCOCCNC(=O)COCCOCCNC(=O)CC[C@H](NC(=O)CCCCCCCCCCCCCCCCC(=O)O)C(=O)O)NC1=O [Compd 39, 5 AminoPentanoicAcid-[Tet1]-T-H-[Dpa]-P-[Cys]-I-[Lys(1PEG2_1PEG2_IsoGlu_C18_Diacid)]-[bhPhe]-[(D)Lys]-[Cys]-NH2] | > 500
8 | CC[C@H](C)[C@@H]1NC(=O)[C@@H](NC(=O)[C@@H]2CCCN2C(=O)[C@@H](NC(=O)[C@H](Cc2cnc[nH]2)NC(=O)[C@@H](NC(=O)[C@H](CC2N=NN=N2)NC(=O)c2ccccc2)[C@@H](C)O)C(c2ccccc2)c2ccccc2)CSSC[C@@H](C(N)=O)NC(=O)[C@@H](CCCCN)NC(=O)C[C@H](Cc2ccccc2)NC(=O)[C@H](CCCCNC(=O)COCCOCCNC(=O)COCCOCCNC(=O)CC[C@H](NC(=O)CCCCCCCCCCCCCCCCC(=O)O)C(=O)O)NC1=O [Compd 42, Benzyl-[Tet1]-T-H-[Dpa]-P-[Cys]-I-[Lys(1PEG2_1PEG2_IsoGlu_C18_Diacid)]-[bhPhe]-[(D)Lys]-[Cys]-NH2] | 10 to 100
9 | CCCCCCCCCCCCCCCC(=O)NCCOCCOCCOCCOCCOCCOCCOCCOCCOCCOCCOCCOCCC(=O)NCCCC[C@@H]1NC(=O)[C@H](Cc2ccccc2)NC(=O)[C@H](CCCCN)NC(=O)[C@H]([C@@H](C)CC)NC(=O)[C@@H](NC(=O)[C@@H]2CCCN2C(=O)[C@H](Cc2ccccc2)NC(=O)[C@H](Cc2c[nH]cn2)NC(=O)[C@@H](NC(=O)[C@H](CC(=O)O)NC(=O)CC(C)C)[C@@H](C)O)CSSC[C@@H](C(=O)N[C@@H](CCCCN)C(N)=O)NC(=O)CNC(=O)[C@H](CCCCN)NC(=O)[C@H](CO)NC(=O)[C@H](CCCNC(=N)N)NC(=O)[C@@H]2CCCN2C1=O [compound 1, reference compound] | 10 to 100
